Laboratory results: ChEMBL document CHEMBL4483862, “Open-source discovery of chemical leads for next-generation chemoprotective antimalarials” (2018)
pIC50: −log10 of the molar value.

System: Plasmodium berghei
Experiment: Luciferase/luciferin-expressing antifolate-resistant parasites were used to infect a culture of HepG2 cells that were pre-incubated with compounds. Infected hepatocytes emit light due to the luciferase reaction. Assay results are presented as the percent inhibition of light emission compared to control. […]
Format: functional
Conditions: sporozoite; for pIC50: read-out: LUCIFERASE INFECTION ASSAY - IC50; for IC90: read-out: LUCIFERASE INFECTION ASSAY - IC90

SMILES	pIC50	IC90 [µM]
O=[N+]([O-])c1ccc(NC2CCN(Cc3ccccc3)CC2)c2ccncc12	5.03	> 10
CCNC(=O)COc1ccc(/C=C2\COc3ccccc3C2=O)cc1OC	< 5.00	> 10
CCOc1ccccc1NC(=O)c1cc(CC(C)C)oc1C	< 4.96	> 10.9
Cc1c(C(=O)NC2CCN(Cc3ccccc3)C2)oc2c(Cl)cccc12 (stereo not given)	< 5.00	> 10
CC(=O)Nc1ccc(S(=O)(=O)NCCC(=O)OCc2ccccc2F)cc1	< 5.00	> 10
Cc1ccc(NC(=O)COc2ccc(CCO)cc2-n2nc3ccccc3n2)cc1C	< 5.00	> 10
Cc1ccc(SCCNS(=O)(=O)c2ccc(F)cc2)cc1	< 5.00	> 10.1
Cc1nc(N2CCN(Cc3ccccc3)CC2)nc2c1C(=O)CC(C)C2 (stereo not given)	< 5.03	> 9.42
O=C1c2cccc3c([N+](=O)[O-])ccc(c23)C(=O)N1Cc1cccnc1	< 5.00	> 9.9
Clc1ccc(SCc2cc(N3CCOCC3)nc(-c3ccccn3)n2)cc1	5.32	4.86
Cn1nc(C(C)(C)C)cc1NC(=O)Nc1cc(Cl)cc(Cl)c1	< 5.01	> 9.67
Cc1cc(C(C)(C)C)cc(C)c1CCNC(=O)c1ccc[n+]([O-])c1	< 5.00	> 10
CCOC(=O)c1c(NC(=O)C[n+]2ccc(Cc3ccccc3)cc2)sc(C)c1C	5.42	8.6
Cc1sc2ncnc(Sc3nnc(C(F)(F)F)n3C)c2c1C	< 5.00	> 10
C/C(=N\Nc1nc2ccccc2[nH]1)c1ccc2c(c1)OCO2	5.39	4.99
FC(F)(F)c1ccc(C2c3ccsc3CCN2C(=S)Nc2ccc(Cl)cc2Cl)cc1 (stereo not given)	5.37	> 6.77
O=c1c2ccccc2nc2c3ccccc3c(NCCCN3CCOCC3)nn12	5.04	> 10
CC(=O)NC(C)c1ccc(C2=NNC(=Nc3cccc(Cl)c3C)SC2)cc1 (stereo not given)	< 5.00	> 10
N#Cc1c(Cl)c2ccccc2[nH]c1=O	4.83	> 16.1
Cc1nn2c(=O)c(Cc3ccccc3Cl)c(C)[nH]c2c1-c1ccccc1	5.57	2.97
COc1ccccc1-c1nnc(SCc2cc(=O)c(O)co2)n1C	< 5.00	> 10
COc1ccc(OCCN(C)C(=O)c2ccc(-n3cccn3)cc2)cc1	< 5.00	> 10
N#C/C(=N\Nc1ccc(F)c(Cl)c1)C(=O)c1ccc(Cl)cc1	5.97	1.26

SMILES	pIC50	IC90 [µM]
CCCCCC1C(O)CC(c2ccccc2)N(C)C1c1ccccc1 (stereo not given)	< 5.01	> 9.78
O=C(Nc1ccc(Cl)cc1)Nc1cc(Cl)sc1Cl	5.51	3.79
O=C(Nc1ccc(F)cc1)OCCSc1ccc([N+](=O)[O-])c2nonc12	< 5.06	> 8.72
O=C(NCC#Cc1ccccc1)c1cccc2cccnc12	< 5.00	> 10
COCC(C)NS(=O)(=O)c1c(C(C)C)cc(C(C)C)cc1C(C)C (stereo not given)	< 5.03	> 9.28
CCC(C)(C)C1CCC(NC(=O)N(C)CC(=O)Nc2c(C)cccc2C)CC1 (stereo not given)	< 5.00	> 10
CCOC(=O)c1cc(C#N)c(SCC(=O)Nc2ccccc2CC)nc1C	< 5.00	> 10
Cc1ccc(-c2csc(NCSc3cccc4cccnc34)n2)cc1	< 5.00	> 10
FC(F)(F)c1ccc(Nc2ccc3c(c2)CCC3)nc1	< 5.00	> 10
CCOc1ccccc1NC(=O)CSc1nnc2cc(C)c3ccccc3n12	< 5.00	> 10
N#Cc1ccc(CN2CCN(c3ccc(-c4nc5ccccc5[nH]4)cn3)CC2)cc1	< 5.00	> 10
CCN(CCC#N)c1ccc(/C=C2/C(=O)Nc3cc(Cl)ccc32)c(C)c1	< 5.00	> 10
O=C1CN(C(=O)COc2ccc(F)cc2Br)CCN1	< 5.00	> 10
CCCCNC(=O)Nc1ccn(C)n1	< 4.77	> 16.8
FC(F)(F)c1ccc(NCCNc2ccc(C(F)(F)F)cn2)nc1	5.91	2.55
Cc1nn2c(=O)cc(C(C)C)[nH]c2c1-c1ccc(F)cc1	< 4.94	> 11.6
Clc1ccc(CNc2ncnc3sccc23)cc1	5.48	> 10
O=C(CNc1cc(C(F)(F)F)cc(C(F)(F)F)c1)NC(=O)NC1CCCC1	5.23	> 10
Fc1ccc(-c2nc3ccc(Cl)cc3[nH]2)cc1	< 4.87	> 13.4
CSc1nnc(-c2ccc(C(C)(C)C)cc2)n1C	< 4.90	> 12.6
COc1ccc(C(c2ccc(N(C)C)cc2)c2ccc(N(C)C)cc2)c(C)c1C	< 5.07	> 8.49
CC(=O)N[C@H]1[C@@H](OC(C)=O)O[C@H](COC(c2ccccc2)(c2ccccc2)c2ccccc2)[C@@H](OC(C)=O)[C@@H]1OC(C)=O	< 5.25	> 5.6
Cc1ccc(C2Nc3ccccc3C(=O)N2C(C)c2ccccc2)o1 (stereo not given)	< 5.00	> 10

SMILES	pIC50	IC90 [µM]
CC(C)(C)c1cc(C(c2ccccn2)N2CCCC2)cc(C(C)(C)C)c1O (stereo not given)	< 5.00	> 10
Cc1nc2ccccn2c1C(=O)N/N=C/c1ccccc1O	5.00	> 11.2
CNS(=O)(=O)c1ccc(NC(=O)c2ccc3[nH]c(C)c(C)c3c2)cc1	< 5.00	> 10
Cc1cc(C)c(S(=O)(=O)N2CCC(C(=O)Nc3nnc(C)o3)CC2)c(C)c1	< 5.00	> 10
CCOC(=O)c1cnn(-c2c(Cl)cc(Cl)cc2Cl)c1-c1ccccc1	< 5.08	> 8.34
O=[N+]([O-])c1ccc(Nc2cccc(OC3CCCC3)c2)nc1	< 5.00	> 10
CC(C)CN1CCOC(CSc2nc3sc4c(c3c(=O)n2C)CCC4)C1 (stereo not given)	< 5.00	> 10
O=C1CCCN1c1cccc(Oc2nc(-c3cccnc3)nc3ccccc23)c1	< 5.00	> 10
Cc1ccc(-n2nnnc2-c2cnc3ccccc3c2-c2ccccc2)cc1	< 5.04	> 9.08
CCN(CC)C(=S)SCC(=O)c1cc(C)n(-c2ccccc2)c1C	5.31	> 10
OCCNc1nc(Sc2ccc(Cl)cc2)nc2ccccc12	< 5.00	> 10
COc1ccc(C)cc1CCNC(=O)c1cc(C2CC2)nn1-c1ccccc1	< 5.00	> 10
O=C(Nc1ccc(-c2nccs2)cc1)c1cc(Br)c[nH]1	5.12	> 10
CC(C)c1ccc(-c2noc(CCC(=O)Nc3ccn(C)n3)n2)cc1	< 5.00	> 10
CC(Nc1ccc2c(c1)OC(F)(F)O2)C(=O)Nc1ccc(Cl)cn1 (stereo not given)	< 5.00	> 10
CCc1[nH]c(=O)c(C#N)c(-c2ccccc2)c1C(=O)OC	< 4.93	> 11.7
Cc1nc2ccccc2c(=O)n1-c1ccc(C(=O)NCCCc2ccccc2)cc1	< 5.00	> 10
O=S(=O)(Nc1cccc(-c2ncon2)c1)c1cc(C(F)(F)F)cc(C(F)(F)F)c1	6.27	> 7.55
CCCCCCOc1ccc(-c2cnc(SC)nc2)cc1	6.69	0.535
Cc1nc(NCCSc2nccn2C)c2c(-c3ccccc3)csc2n1	< 5.00	> 10
C=S(=O)(NC(=O)c1ccc(C(F)(F)F)cc1)c1ccccc1 (stereo not given)	< 5.00	> 10.1
Cc1cc(-c2ccc(Cl)cc2)nc2c1c(C)nn2CCO	5.39	> 10
CCn1cc(CN(C)C(=O)c2sc3cccc(Cl)c3c2Cl)c(C)n1	< 5.06	> 8.63

SMILES	pIC50	IC90 [µM]
Cc1sc2ncnc(NC(C)C(=O)Nc3ccc4c(c3)OCCCO4)c2c1C (stereo not given)	5.09	> 10
COc1ccc(CCNC(=O)COC(=O)c2sc(C)nc2C)cc1	< 5.00	> 10
O=C(Nc1ncccc1O)c1ccc(-c2ccc3c(c2)OCCO3)s1	5.13	> 10
CCc1sc(C(=O)Nc2nc(-c3ccc(CNC(C)=O)cc3)cs2)cc1C	< 5.00	> 10
CC1CCCCC1NC(=O)c1c[nH]c2ccc(Br)cc12 (stereo not given)	< 5.00	> 10
CSc1nc2ccc(NC(=O)c3cn4ccccc4n3)cc2s1	5.50	> 10
COc1ccc(CNc2ncnc3ccsc23)cc1	5.05	> 10
CC(C(=O)Nc1cccc(C#Cc2cccs2)c1)n1cnc2ccccc21 (stereo not given)	< 5.00	> 10
COc1ccc(OCCN2CCN(C(C)C(=O)Nc3sccc3C(N)=O)CC2)cc1 (stereo not given)	< 5.00	> 10
Cc1ccc(NC(=O)CN2CCN(Cc3c(O)ccc4ccncc34)CC2)cc1	< 5.00	> 10
Clc1ccc(-c2nnc(-c3cc(Cl)cc(Cl)c3)o2)cc1	< 5.00	> 10.1
COc1ccc(/C=C2\CCCc3c2nc2ncnn2c3-c2ccc(OC)cc2)cc1	< 5.00	> 10
N#C/C(=N\Nc1ccc(F)cc1)C(=O)c1ccc(Cl)cc1	5.02	> 10.9
O=C(NC(c1ccccc1O)C(NC(=O)c1ccccc1)c1ccccc1O)c1ccccc1 (stereo not given)	< 5.14	> 7.29
Cc1ccc(C2NC(=S)NC3=C2C(=O)c2ccccc23)cc1 (stereo not given)	< 4.97	> 10.8
CC1CCC2(CC1)NC(=O)N(CC(=O)NCC(F)(F)F)C2=O (stereo not given)	< 5.00	> 10
O=[N+]([O-])c1ccc(SCCOS(=O)(=O)c2cccc(C(F)(F)F)c2)c2nonc12	< 5.13	> 7.34
O=C(Nc1nc2c(s1)CCc1ccccc1-2)c1cccc(-n2cnnn2)c1	< 5.00	> 10
Fc1cccc(-n2nnnc2-c2ccc(Cl)c(Cl)c2)c1	< 4.97	> 10.7
Cc1sc2nc(-c3cccnc3)nc(NCC(c3ccco3)N(C)C)c2c1C (stereo not given)	< 5.00	> 10
N#CC(Nc1cc(C(F)(F)F)cc(C(F)(F)F)c1)c1ccccc1 (stereo not given)	5.14	> 9.59
